Test results from patent US10632119B2, “Fused bicyclic 2,4-diaminopyrimidine derivative as a dual ALK and FAK inhibitor” (priority 2012, dated 2020).
Converted amounts (≈) assume the structure as drawn. Like-named read-outs stand apart in the source and are kept apart here.

How the values were obtained:
[1] = tested on: NCI-H2228 NSCLC tumor xenografts; test: Anti-tumor activity, EML4-ALK positive NCI-H2228 NSCLC xenograft; settings: for anti-tumor efficacy: 12 days
Excerpt: (§1) Anti-Tumor Activity in EML4-ALK Positive (NCI-H2228 and NCI-H3122) NSCLC Tumor Xenografts in Mice with Oral Dosing
(§2) Generation of EML4-ALK-positive and EML4-ALK-negative NSCLC Subcutaneous Tumor Xenografts in Scid Mice Female Scid/Beige mice (6-8 weeks, Taconic, Hudson. N.Y.) were maintained 5/cage in microisolator units on a standard laboratory diet (Teklad Labchow, Harlan Teklad, Madison, Wis.). Animals were housed under humidity- and temperature controlled conditions and the light/dark cycle was set at 12-hour intervals. Mice were quarantined at least 1 week prior to experimental manipulation. […] The mice were monitored until the tumor xenograft volumes reached 200-500 mm3.
(§3) The length (L) and width (W) of each tumor were measured with vernier calipers and the mouse body weight was determined every two to three days. […] Percent tumor growth inhibition (% TGI) was calculated as follows: (tumor volume of the control group at end of treatment—tumor volume of the treated group at the end of treatment)/tumor volume of the control group at the end of treatment. […] Complete tumor regression (CR) was defined as the tumor volume of the treated group at the end of treatment being less than 5% of the tumor volume of the treated group as the start of treatment. Statistical analyses of tumor volumes and mouse body weights were carried out with the Mann-Whitney Rank Sum Test. Plasma and tumor samples were obtained at 2 hours post final dose at each dose level, and the compound levels in plasma and tumor lysates were measured by LC-MS/MS

[2] = tested on: NCI-H3122 NSCLC tumor xenografts; test: Anti-tumor activity, EML4-ALK positive NCI-H3122 NSCLC xenograft; settings: for anti-tumor efficacy: 12 days
Excerpt: as §1, §2, §3

Adrenergic α1B (R) = Adrenergic α1B (R) (Rattus norvegicus, UniProt P15823); test: Receptor selectivity (Cerep); format: binding
Chain of Adrenergic α1B (R) (P15823 whole entry): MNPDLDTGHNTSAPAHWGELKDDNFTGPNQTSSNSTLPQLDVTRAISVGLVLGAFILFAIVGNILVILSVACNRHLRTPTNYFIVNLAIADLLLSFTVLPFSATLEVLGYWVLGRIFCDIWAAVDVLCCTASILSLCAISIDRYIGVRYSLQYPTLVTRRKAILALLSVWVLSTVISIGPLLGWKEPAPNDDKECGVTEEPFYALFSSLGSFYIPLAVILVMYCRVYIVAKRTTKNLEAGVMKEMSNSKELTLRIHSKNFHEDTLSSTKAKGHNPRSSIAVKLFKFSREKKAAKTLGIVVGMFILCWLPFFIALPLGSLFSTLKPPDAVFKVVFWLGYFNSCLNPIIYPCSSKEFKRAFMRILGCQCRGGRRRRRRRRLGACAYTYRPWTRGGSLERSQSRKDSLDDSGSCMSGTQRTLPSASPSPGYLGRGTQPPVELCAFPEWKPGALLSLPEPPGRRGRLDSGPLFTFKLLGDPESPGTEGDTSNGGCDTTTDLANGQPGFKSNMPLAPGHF

Protein binding, human = format: in vitro ADME; settings: human (H)
CYP 2C19 = CYP 2C19 (Homo sapiens, UniProt P33261); test: CYP inhibition; format: in vitro ADME
Chain of CYP 2C19 (P33261 whole entry): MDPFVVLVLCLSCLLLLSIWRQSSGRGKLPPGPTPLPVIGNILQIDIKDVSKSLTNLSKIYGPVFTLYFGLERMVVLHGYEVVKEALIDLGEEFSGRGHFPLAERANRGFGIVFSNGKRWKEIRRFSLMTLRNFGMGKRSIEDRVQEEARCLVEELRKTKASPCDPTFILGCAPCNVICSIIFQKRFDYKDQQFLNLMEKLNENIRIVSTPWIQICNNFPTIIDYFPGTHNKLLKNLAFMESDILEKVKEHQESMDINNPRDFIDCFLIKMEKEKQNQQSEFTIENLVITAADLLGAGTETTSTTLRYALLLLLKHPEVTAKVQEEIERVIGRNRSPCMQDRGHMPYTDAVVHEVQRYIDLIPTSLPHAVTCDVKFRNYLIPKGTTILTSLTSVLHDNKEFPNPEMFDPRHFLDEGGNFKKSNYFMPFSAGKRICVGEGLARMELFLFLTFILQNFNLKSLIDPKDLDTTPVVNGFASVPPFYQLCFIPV

[3] = Protocol: Five animals/sex were assigned to each dose group and were given daily oral doses of 0 (vehicle), 20, 40 or 80 mg/kg for up to 91 days. […] Three animals/sex/group were scheduled for termination at the end of the dosing period (Day 92) and two animals/sex/group were assigned to a 6-week non-dosing recovery phase and were terminated on Day 134.
Urine samples for urinalysis only were obtained by bladder puncture during necropsy. Urine samples for urinalysis and urine chemistry analysis were also obtained by drainage from special stainless-steel cage pans in Weeks −1, 1, 4, and 13, and from the remaining animals near the end of the recovery period.
Blood samples were collected for toxicokinetic analysis at various time points on Day 1 and during Weeks 4 and 13. […] At termination, a full necropsy was conducted on all animals, and tissues were collected, preserved, processed, and examined microscopically by a Veterinary Pathologist certified by the American College of Veterinary Pathologists.

ALK [4] = target: T1, ALK (Homo sapiens, UniProt Q9UM73); test: ALK enzymatic assay; format: biochemical
Caco-2 permeability = format: in vitro ADME; settings: human
[5] = In vitro metabolic stability, mouse; format: in vitro ADME; settings: mouse (M); read-out: In vitro metabolic stability t1/2
IR = IR (Homo sapiens, UniProt P06213); test: biochemical
FAK [6] = target: T2, FAK (Homo sapiens, UniProt Q05397); test: FAK enzymatic assay; format: biochemical
T2 sequence (Q05397 whole entry): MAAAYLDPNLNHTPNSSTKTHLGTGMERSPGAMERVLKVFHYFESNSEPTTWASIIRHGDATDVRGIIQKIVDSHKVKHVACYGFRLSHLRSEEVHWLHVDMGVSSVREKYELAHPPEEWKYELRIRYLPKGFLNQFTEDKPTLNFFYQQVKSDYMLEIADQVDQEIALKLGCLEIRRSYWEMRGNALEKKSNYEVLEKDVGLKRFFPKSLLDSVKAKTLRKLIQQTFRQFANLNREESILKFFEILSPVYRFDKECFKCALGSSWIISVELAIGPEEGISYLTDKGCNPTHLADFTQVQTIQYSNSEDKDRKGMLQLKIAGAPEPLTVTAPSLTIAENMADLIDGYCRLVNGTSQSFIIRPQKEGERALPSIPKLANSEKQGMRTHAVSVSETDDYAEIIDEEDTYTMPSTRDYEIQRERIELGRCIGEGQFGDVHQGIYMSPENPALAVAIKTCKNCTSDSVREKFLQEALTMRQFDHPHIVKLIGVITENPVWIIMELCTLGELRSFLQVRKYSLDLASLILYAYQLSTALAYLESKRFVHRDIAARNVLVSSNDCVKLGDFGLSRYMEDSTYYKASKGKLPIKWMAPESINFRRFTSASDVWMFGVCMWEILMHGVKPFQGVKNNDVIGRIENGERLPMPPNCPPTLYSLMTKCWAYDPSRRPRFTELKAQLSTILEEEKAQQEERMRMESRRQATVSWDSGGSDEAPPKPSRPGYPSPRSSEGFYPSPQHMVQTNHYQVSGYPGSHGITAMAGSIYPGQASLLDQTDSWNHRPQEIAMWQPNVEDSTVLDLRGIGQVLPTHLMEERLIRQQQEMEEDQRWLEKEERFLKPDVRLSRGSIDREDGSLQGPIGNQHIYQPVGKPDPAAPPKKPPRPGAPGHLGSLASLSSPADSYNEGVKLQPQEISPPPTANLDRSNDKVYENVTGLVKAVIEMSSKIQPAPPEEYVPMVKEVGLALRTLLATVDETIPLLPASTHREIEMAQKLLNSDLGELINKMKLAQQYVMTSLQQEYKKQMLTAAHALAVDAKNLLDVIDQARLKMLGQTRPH

[7] = In vitro metabolic stability, human; format: in vitro ADME; settings: human (H); read-out: In vitro metabolic stability t1/2
ALK [8] = target: T1, ALK; test: ALK cellular assay; format: cell-based
Target sequence in this assay (Q9UM73 with tags, fused parts or gaps): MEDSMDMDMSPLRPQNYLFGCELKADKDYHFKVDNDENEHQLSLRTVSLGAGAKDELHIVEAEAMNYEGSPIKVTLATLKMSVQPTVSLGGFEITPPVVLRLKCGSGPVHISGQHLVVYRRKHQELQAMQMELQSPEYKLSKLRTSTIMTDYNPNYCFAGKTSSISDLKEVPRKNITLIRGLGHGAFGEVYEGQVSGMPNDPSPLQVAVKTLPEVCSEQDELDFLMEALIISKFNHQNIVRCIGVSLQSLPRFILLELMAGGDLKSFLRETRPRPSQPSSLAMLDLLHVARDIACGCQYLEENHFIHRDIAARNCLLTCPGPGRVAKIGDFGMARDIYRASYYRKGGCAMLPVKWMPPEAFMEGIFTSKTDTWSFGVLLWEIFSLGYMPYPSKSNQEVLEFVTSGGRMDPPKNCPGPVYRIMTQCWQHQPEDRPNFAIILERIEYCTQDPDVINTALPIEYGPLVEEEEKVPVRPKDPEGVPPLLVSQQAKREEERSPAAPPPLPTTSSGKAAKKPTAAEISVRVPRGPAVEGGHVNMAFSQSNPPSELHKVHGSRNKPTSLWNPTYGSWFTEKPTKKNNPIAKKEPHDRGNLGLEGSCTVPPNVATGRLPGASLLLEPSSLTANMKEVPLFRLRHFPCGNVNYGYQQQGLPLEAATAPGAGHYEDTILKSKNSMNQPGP

Rat bioavailability = settings: in vivo
[9] = In vitro metabolic stability, rat; format: in vitro ADME; settings: rat (R); read-out: In vitro metabolic stability t1/2
Equilibrium solubility = format: physicochemical; settings: thermodynamic from solid
[10] = In vitro metabolic stability, dog; format: in vitro ADME; settings: dog (D); read-out: In vitro metabolic stability t1/2
[11] = In vitro metabolic stability, monkey; format: in vitro ADME; settings: monkey (Mo); read-out: In vitro metabolic stability t1/2
Protein binding, dog = format: in vitro ADME; settings: dog (D)
CYP 1A2 = CYP 1A2 (Homo sapiens, UniProt P05177); test: CYP inhibition; format: in vitro ADME
Chain of CYP 1A2 (P05177 whole entry): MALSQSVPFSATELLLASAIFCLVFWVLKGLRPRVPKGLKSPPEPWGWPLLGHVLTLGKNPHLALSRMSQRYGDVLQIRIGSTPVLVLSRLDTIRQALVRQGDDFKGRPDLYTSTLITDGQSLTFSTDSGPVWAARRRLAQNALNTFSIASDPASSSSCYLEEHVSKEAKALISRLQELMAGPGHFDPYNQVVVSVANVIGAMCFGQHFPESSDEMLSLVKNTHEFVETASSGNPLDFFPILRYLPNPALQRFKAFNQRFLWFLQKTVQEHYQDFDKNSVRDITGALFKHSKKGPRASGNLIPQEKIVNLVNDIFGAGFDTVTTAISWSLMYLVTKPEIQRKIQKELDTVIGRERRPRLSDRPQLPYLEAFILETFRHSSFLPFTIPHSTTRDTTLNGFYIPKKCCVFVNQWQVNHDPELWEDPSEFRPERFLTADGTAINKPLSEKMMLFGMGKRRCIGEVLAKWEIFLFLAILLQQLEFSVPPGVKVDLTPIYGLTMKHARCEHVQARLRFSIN

Protein binding, mouse = format: in vitro ADME; settings: mouse (M)
CYP 2D6 = CYP 2D6 (Homo sapiens, UniProt P10635); test: CYP inhibition; format: in vitro ADME
FAK [12] = target: T2, FAK; test: FAK cellular assay; format: cell-based
in vivo = test: in vivo
Protocol: One additional group of 20 animals/sex served as the control and received the vehicle, distilled water. The drug or vehicle was administered to all groups via oral gavage, once a day for 91 consecutive days, at a dose volume of 10 mL/kg/dose. Following the dosing period, five animals/sex/group were maintained for a 4-week recovery period. Additionally, one group of three animals/sex and three groups of nine animals/sex/group served as toxicokinetic (TK) animals and received the vehicle or drug in the same manner and at the same dose levels as the main study groups.
Observations for morbidity, mortality, injury, and the availability of food and water were conducted at least twice daily for all animals. Clinical observations were conducted on main study animals weekly. Body weights were measured and recorded for all animals prior to initiation of dosing (week −1) and weekly during the study. Food consumption was measured and recorded for main study animals weekly. Ophthalmoscopic examinations were conducted on main study animals pretest and prior to the terminal and recovery necropsies. Blood samples for designated clinical pathology evaluations were collected from main study animals at the end of week 4 and at the terminal and recovery necropsies. Urine samples for urinalysis evaluations were collected from main study animals prior to the terminal and recovery necropsies. Blood samples for determination of the plasma concentrations of the drug were collected from designated TK animals at designated time points on day 1, week 4, and week 13. After the final blood collection, the TK animals were euthanized and the carcasses were discarded. At the end of the terminal and recovery periods, necropsy examinations were performed, organ weights were recorded, and selected tissues were microscopically examined.

Monkey bioavailability = settings: in vivo, po
Mouse bioavailability = format: in vivo; settings: CEP-37440 as amorphous HCl salt
CYP 2C9 = CYP 2C9 (Homo sapiens, UniProt P11712); test: CYP inhibition; format: in vitro ADME
hERG = hERG (Homo sapiens, UniProt Q12809); test: hERG patch clamp; format: cell-based
Chain of hERG (Q12809 whole entry): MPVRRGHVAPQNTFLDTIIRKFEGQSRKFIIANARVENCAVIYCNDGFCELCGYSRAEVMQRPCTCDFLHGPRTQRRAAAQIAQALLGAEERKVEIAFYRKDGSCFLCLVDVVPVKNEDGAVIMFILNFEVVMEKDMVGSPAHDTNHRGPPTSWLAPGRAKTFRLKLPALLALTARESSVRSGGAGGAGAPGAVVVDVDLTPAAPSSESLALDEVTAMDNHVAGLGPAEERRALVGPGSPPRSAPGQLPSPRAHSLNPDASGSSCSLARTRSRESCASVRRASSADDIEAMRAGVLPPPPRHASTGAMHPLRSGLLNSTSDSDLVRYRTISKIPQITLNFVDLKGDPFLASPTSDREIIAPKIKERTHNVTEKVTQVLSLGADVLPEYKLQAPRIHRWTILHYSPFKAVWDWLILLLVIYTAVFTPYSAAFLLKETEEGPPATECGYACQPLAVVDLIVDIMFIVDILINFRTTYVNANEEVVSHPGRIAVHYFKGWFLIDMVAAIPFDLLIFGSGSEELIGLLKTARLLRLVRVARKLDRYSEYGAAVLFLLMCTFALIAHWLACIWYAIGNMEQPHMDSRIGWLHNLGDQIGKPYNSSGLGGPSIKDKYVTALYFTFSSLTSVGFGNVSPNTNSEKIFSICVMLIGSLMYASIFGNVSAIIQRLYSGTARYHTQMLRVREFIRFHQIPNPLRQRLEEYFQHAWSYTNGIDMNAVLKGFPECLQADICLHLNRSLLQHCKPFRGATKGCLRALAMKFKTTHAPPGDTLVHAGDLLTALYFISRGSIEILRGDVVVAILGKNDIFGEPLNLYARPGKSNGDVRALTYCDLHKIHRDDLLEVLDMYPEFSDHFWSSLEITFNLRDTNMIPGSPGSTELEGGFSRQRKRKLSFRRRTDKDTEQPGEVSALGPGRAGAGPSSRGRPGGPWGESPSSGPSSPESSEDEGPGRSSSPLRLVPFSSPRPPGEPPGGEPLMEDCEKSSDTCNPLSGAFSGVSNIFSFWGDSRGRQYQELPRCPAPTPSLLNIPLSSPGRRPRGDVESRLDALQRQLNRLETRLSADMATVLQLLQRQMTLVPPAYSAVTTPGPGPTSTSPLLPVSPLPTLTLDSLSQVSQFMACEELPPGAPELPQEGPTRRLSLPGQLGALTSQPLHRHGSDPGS

Adrenergic α1D (H) = Adrenergic α1D (H) (Homo sapiens, UniProt P25100); test: Receptor selectivity (Cerep); format: binding
Chain of Adrenergic α1D (H) (P25100 whole entry): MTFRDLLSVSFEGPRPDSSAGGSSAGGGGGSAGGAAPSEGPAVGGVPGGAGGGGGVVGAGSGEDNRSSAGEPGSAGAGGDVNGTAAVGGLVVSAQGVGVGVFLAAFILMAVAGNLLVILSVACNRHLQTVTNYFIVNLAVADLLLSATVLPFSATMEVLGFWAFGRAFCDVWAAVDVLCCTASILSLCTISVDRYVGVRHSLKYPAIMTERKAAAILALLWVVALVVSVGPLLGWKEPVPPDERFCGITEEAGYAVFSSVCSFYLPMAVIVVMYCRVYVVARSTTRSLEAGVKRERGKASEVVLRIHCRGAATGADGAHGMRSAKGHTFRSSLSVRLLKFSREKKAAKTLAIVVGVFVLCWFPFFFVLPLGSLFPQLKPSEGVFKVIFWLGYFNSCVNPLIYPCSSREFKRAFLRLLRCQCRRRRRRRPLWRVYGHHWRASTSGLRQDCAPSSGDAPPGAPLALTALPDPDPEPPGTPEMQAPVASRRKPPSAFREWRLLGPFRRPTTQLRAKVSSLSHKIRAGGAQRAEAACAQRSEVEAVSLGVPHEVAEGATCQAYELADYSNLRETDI

CYP3A4 = CYP3A4 induction in vitro
[13] = remark: listed apart in the source
Protocol: The following parameters and end points were evaluated in this study: clinical signs (mortality/moribundity checks, cage side observations and food consumption, and postdose observations), body weights, veterinary physical examinations, lung evaluations, ophthalmology, electrocardiography, blood pressure and heart rate measurements, clinical pathology parameters (hematology, coagulation, clinical chemistry, urinalysis, urine chemistry, and troponin I analysis), toxicokinetic parameters, gross necropsy findings, organ weights, and histopathologic examinations.

With `CNC(=O)c1ccccc1Nc1nc(Nc2ccc3c(c2OC)CCCC(N2CCN(CCO)CC2)C3)ncc1Cl.Cl` (centres unmarked) [CEP-37440 (HCl salt), 2-(5-Chloro-2-{6-[4-(2-hydroxy-ethyl)-piperazin-1-yl]-1-methoxy-6,7,8,9-tetrahydro-5H-benzocyclohepten-2-ylamino}-pyrimidin-4-ylamino)-N-methyl-benzamide hydrochloride] the anti-tumor efficacy ([1]; 30 mg/kg bid po) was “tumor regressions”, the anti-tumor efficacy ([1]; 30 mg/kg, qd, po) was “tumor regressions” and the anti-tumor efficacy ([1]; 55 mg/kg qd po) was “tumor regressions”. The “tolerability, body weight” value ([1]; 12 days treatment) was “well tolerated with no overt toxicity or compound-related weight loss”, the anti-tumor efficacy ([2]; 30 mg/kg bid po) was “tumor stasis and partial regressions” and the anti-tumor efficacy ([2]; 55 mg/kg qd po) was “tumor stasis and partial regressions”. For the same compound, the “tolerability, body weight” value ([2]; 12 days treatment) was “well tolerated with no overt toxicity or compound-related weight loss (FIGS. 14 and 15), except at 30 mg/kg, bid dose”.

In the case of `COc1c(Nc2ncc(Cl)c(N[C@H]3[C@@H](C(N)=O)[C@@H]4C=C[C@H]3C4)n2)ccc2c1CC[C@@H](N1CCOCC1)CC2` [CEP-28122, (1 S,2S,3R,4R)-3-[5-chloro-2-((S)-1-methoxy-7-morpholin-4-yl-6,7,8,9-tetrahydro-5H-benzocyclohepten-2-ylamino)-pyrimidin-4-ylamino]-bicyclo[2.2.1]hept-5-ene-2-carboxylic acid amide], the Ki (Adrenergic α1B (R)) is reported as 2200 nM, the Protein binding (Protein binding, human) is reported as 99.2 % bound and the IC50 (CYP 2C19) is reported as 6800 nM. For the same compound, the animals with seizures ([3]; 80 mg/kg, Days 9 and/or 10) was 2 animals, the “lung gross and histologic findings, early death animals” value ([3]; 20, 40, 80/60 mg/kg) was “pulmonary edema was identified in all dose groups” and the morbidity and mortality ([3]; 20, 40, 80/60 mg/kg daily, 91 days) was “morbidity and mortality in two animals dosed with 80/60 mg/kg and likely two additional animals”. The hematology changes ([3]; 80/60 mg/kg, from Day 28, returned to baseline by end of recovery) was “decrease in lymphocytes”, the “liver enzymes in surviving animals” value ([3]; 80/60 mg/kg, returned to baseline by end of recovery) was “increased alanine aminotransferase (ALT) and aspartate aminotransferase (AST)” and the IC50 (ALK [4]) was 3 nM. The Papp (Caco-2 permeability) was 12.6 ×10⁻⁶ cm/s, the half-life [5] was 13.2 min and the IC50 (IR) was 996 nM. It also gave an IC50 (FAK [6]) of 29.5 nM, a half-life [7] of 10.3 min and an IC50 (ALK [8]; 75% human plasma, read-out: ALK cellular IC50 in 75% human plasma) of 300 nM. The IC50 (ALK [8]; 75% murine plasma, read-out: ALK cellular IC50 in 75% murine plasma) was 300 nM, the IC50 (ALK [8]; read-out: ALK cellular IC50) was 30 nM and the Rat bioavailability (Rat bioavailability) was 25%. For the same compound, the half-life [9] was 6.7 min, the solubility thermodynamic (Equilibrium solubility; pH 2, simulated gastric fluid, read-out: Equilibrium solubility at pH 2) was > 3000 µg/mL and the solubility thermodynamic (Equilibrium solubility; pH 7.4, aqueous buffer, read-out: Equilibrium solubility at pH 7.4) was 13 µg/mL (≈ 24.1 µM). The half-life [10] was 19.9 min, the half-life [11] was < 5 min and the Protein binding (Protein binding, dog) was 96 % bound. For the same compound, the IC50 (CYP 1A2) was > 30000 nM, the Protein binding (Protein binding, mouse) was 95 % bound and the IC50 (CYP 2D6) was 17300 nM. For the same compound, the IC50 (FAK [12]) was 944 nM, the drug-related deaths (in vivo; 30, 75, 150 mg/kg/day oral, 91 days) was “no drug-related deaths” and the “dosages with adverse histopathological effects in the kidney persisting through 4-week recovery” value (in vivo; both, Sprague-Dawley, rat, in vivo, po, 91 days) was ≥ 75 mg/kg/day. For the same compound, the NOAEL at 91 days (in vivo; both, rat, in vivo, po) was 30 mg/kg/day, the bioavailability (Monkey bioavailability; 10 mg/kg) was 16% and the bioavailability (Monkey bioavailability; 30 mg/kg) was 37%. It also gave a Mouse bioavailability (Mouse bioavailability; CD-1 mouse) of 51%, a Mouse bioavailability (Mouse bioavailability; Scid mouse) of 71% and an IC50 (CYP 2C9) of 1300 nM. For the same compound, the IC50 (hERG) was > 10000 nM, the Ki (Adrenergic α1D (H)) was 1100 nM and the “CYP3A4 induction in vitro” value (CYP3A4; @ 0.3 μM) was 0.95 fold. The “CYP3A4 induction in vitro” value (CYP3A4; @ 3.0 μM) was 1.3 fold, the morbidity or mortality ([13]; 3, 10, 20, 40 mg/kg/day oral, 4 weeks) was “did not result in any morbidity or mortality” and the “dose levels with vacuolated cells in the lungs still present after 4-week recovery” value ([13]; both, cynomolgus monkey, in vivo) was ≥ 20 mg/kg/day. The “dose levels with histological effects in the lung (vacuolated cells, increased lung weight)” value ([13]; both, cynomolgus monkey, in vivo, po, 4 weeks) was ≥ 10 mg/kg/day.
